# Test results taken from patent US7741472B2, “Polynucleotide containing a phosphate mimetic” (Roche Diagnostics Operations, Inc., priority 2005, dated 2010).
# Strand notation (5' to 3'): a small letter for the sugar, then the base; units joined by * are phosphorothioate-linked, units joined directly phosphodiester-linked; [ ] holds rarer units or linkages, { } end groups; capitals alone tell only the bases. [PNAc] = P=N-pPh-NAc phosphoramidate mimetic linkage (p1); {Fluorescein} = fluorescein label; d = 2'-deoxy (DNA)
# Legend:
# [1] = system: factor V wild type sequence; test: Melting curve analysis of donor probes, wild type; format: binding; settings: melting temperature of donor probe for factor V wild type sequence; in °C (unit assumed)
# Experimental: (§1) A quantitative real time PCR of factor V DNA with subsequent melting curve analysis was carried out on a LIGHTCYCLER 1.2 instrument (Roche Diagnostics GmbH) in order to analyse the effect of phosphate mimetics on hybridization. Primers were used in combination with a pair of fluorescein/LIGHTCYCLER Red 640 FRET hybridization probes. The primers and the 5′ LIGHTCYCLER Red 640 probe were kept constant. The various 3′ fluorescein probes modified on the phosphate from example 4 and the unmodified fluorescein probe as a reference were used as FRET donor probes. The effect on the crossing point which is a measure for the amplification efficiency and the effect on the melting point were evaluated.
# After the amplification a melting curve analysis was carried out according to the instructions of the LIGHTCYCLER manual (Roche Applied Sciences).
# (§2) The following temperature program was used:
# (§3) The absolute fluorescence signals are measured as above in the 640 nm channel and subsequently the first derivative was calculated from this.
# (§4) The crossing points are shown in the following table as a measure for the amplification efficiency when using different modified donor probes.
# factor V DNA = test: Real time PCR of factor V DNA with modified FRET donor probes (crossing point); format: biochemical; settings: LIGHTCYCLER 1.2, 106 copies of plasmid, 200 nM FRET probes, 640 nm channel
# Experimental: as §1
# 20 μl of a PCR reaction mixture was prepared as follows for the amplification of a factor V DNA fragment.
# 106 copies of a plasmid which contains the factor V wild type gene and mutants (Gene Bank Accession No. M 014335)
# 500 nM each primers having the SEQ ID NO: 1 and 2
# 200 nM each FRET hybridization probes having the SEQ ID NO: 3 and 4
# The LIGHTCYCLER DNA Master Hyb Probes Kit (Roche Applied Science, Cat. No. 2158825) was used for all other PCR components according to the manufacturer's instructions.
# The following sequences were used as primers and probes: […]
# The following temperature program was used for the amplification on the LIGHTCYCLER 1.2 (Roche Applied Science).
# (§5) The real time monitoring was carried out over 45 cycles using the 2nd derivative threshold method in which the fluorescence signal was measured in a detection channel that is specific for the LIGHTCYCLER Red 640 emission (at 640 nm) and the arithmetic background correction mode was used to normalize the initial signal.
# as §4
# factor V mutant sequence = test: Melting curve analysis of donor probes, mutant; format: binding; settings: melting temperature of donor probe for factor V mutant sequence; in °C (unit assumed)
# Experimental: as §1, with “LIGHTCYCLER” left out, “fluorescein/[…]” for “fluorescein/LIGHTCYCLER”, “The various 3′ fluorescein probes modified on the phosphate from example 4 and the unmodified fluorescein probe as a reference were used as FRET donor probes.” left out
# After the amplification a melting curve analysis was carried out according to the instructions of the […] manual (Roche Applied Sciences).
# as §2, §3
# human Factor V DNA = test: Real time PCR with modified primers (crossing point); format: biochemical; settings: LIGHTCYCLER 1.2, primer combinations SEQ ID NO: 1 / SEQ ID NO: 2, 640 nm channel
# Experimental: A quantitative real time PCR of human Factor V DNA was carried out on a LIGHTCYCLER 1.2 instrument (Roche Diagnostics GmbH) in order to analyse the effect of phosphate mimetics on primer elongation. The P═N-pPh-NAc mimetic which was introduced at different positions of a primer pair used for amplification of human Factor V DNA. The modified primers were, synthesized according to example 4. Purification was done by the Reversed Phase chromatography of example 3 in the Trityl on mode. Detritylation was performed by treating with 80% acetic acid for 20 min.
# This primers were used in combination with a pair of fluorescein/LIGHTCYCLER Red 640 FRET hybridization probes according to example 6. The Fluorescein probe and the 5′ LIGHTCYCLER Red 640 probe (SEQ ID NO: 3 and 4) were kept constant. Various combinations of modified and unmodified primers were tested. As reference unmodified primers were used. The effect on the crossing point which is a measure for the amplification efficiency was evaluated.
# as §5, with “which,” for “which”
# The absolute fluorescence signals are measured as above in the 640 nm channel and subsequently the first derivative was calculated from this. The crossing points are shown in the following table as a measure for the amplification efficiency when using different modified primers.
# [2] = Stability of dinucleotides at different temperatures and pH, reverse phase HPLC; format: physicochemical; settings: for stability: pH 7.0, 8.0 and 9.0, 24 h at rt, 1 h at 95° C.
# Experimental: dA(P(═NSO2PhNHAc)dT was synthesized and purified according to example 1) dAdT was also synthesized according to example 1, but standard oxidizers were used (0.02 M iodine in THF).
# The dimers were exposed for different times and temperatures in 10 mM Tris buffer at different pH values 7.0, 8.0, and 9.0. Samples were left at room temperature (approx. 24° C.) for 24 h or at 95° C. for 60 min respectively 16 h. 150 μL aliquots were removed before and after the experiment and 100 μL volumes were injected on the HPLC.
# The decomposition was monitored by reverse phase HPLC on an analytical X-Bridge column (2.5 μm, 4.6×50 mm i.d.) with a Waters 2690 separation module. Detection was carried out with a Waters 2996 PAD Detector (260 nm). A mobile phase of 0.1 M triethylammonium acetate (pH 6.8) pumped with a 95% gradient of acetonitrile at flow rate of 1.0 ml/min was used. The destruction rate of the dimers was judged by monitoring the retention time rt of the dimer signal (Software Millenium, Waters) and determining whether additional peaks with retention times different than that, of the nucleotide dimer occur.
# [3] = pH 7.0, 10 mM Tris, 1 h at 95° C. (dry oven)
# [4] = pH 7.0, 10 mM Tris, 16 h at 95° C. (dry oven)
# [5] = pH 7.0, 10 mM Tris, 24 h at rt (24° C.)
# [6] = pH 7.0, 10 mM Tris, starting solution
# [7] = pH 8.0, 10 mM Tris, 1 h at 95° C. (dry oven)
# [8] = pH 8.0, 10 mM Tris, 16 h at 95° C. (dry oven)
# [9] = pH 8.0, 10 mM Tris, 24 h at rt (24° C.)
# [10] = pH 8.0, 10 mM Tris, starting solution
# [11] = pH 9.0, 10 mM Tris, 1 h at 95° C. (dry oven)
# [12] = pH 9.0, 10 mM Tris, 16 h at 95° C. (dry oven)
# [13] = pH 9.0, 10 mM Tris, 24 h at rt (24° C.)
# [14] = pH 9.0, 10 mM Tris, starting solution
substance,measurement,setting,value
"5′ AATACCTGTATTCCTCGCCTGTC-fluorescein-3′ (ref): unmodified fluorescein FRET donor probe SEQ ID NO: 4, used as a reference (DNA dAdAdTdAdCdCdTdGdTdAdTdTdCdCdTdCdGdCdCdTdGdTdC-{Fluorescein}) [reference compound]",Tm wt,[1],64.92
same,"Cp (crossing point, measure for the amplification efficiency)",factor V DNA,22.11
same,Tm mt,factor V mutant sequence,56.98
5′ AATACCTGTATTCCTCGCCTGTp1C fluorescein-3′: Example 4 fluorescein probe SEQ ID NO: 4; p1 is a P = N-pPh-NAc mimetic (DNA dAdAdTdAdCdCdTdGdTdAdTdTdCdCdTdCdGdCdCdTdGdT[PNAc]dC-{Fluorescein}),Tm wt,[1],64.32
same,"Cp (crossing point, measure for the amplification efficiency)",factor V DNA,22.61
same,Tm mt,factor V mutant sequence,56.26
"5′ AATACCTGTATTp1Cp1Cp1Tp1Cp1Gp1Cp1Cp1Tp1Gp1Tp1C-fluorescein-3′: Example 4 fluorescein probe SEQ ID NO: 4, multiply modified; p1 is a P = N-pPh-NAc mimetic (DNA dAdAdTdAdCdCdTdGdTdAdTdT[PNAc]dC[PNAc]dC[PNAc]dT[PNAc]dC[PNAc]dG[PNAc]dC[PNAc]dC[PNAc]dT[PNAc]dG[PNAc]dT[PNAc]dC-{Fluorescein})",Tm wt,[1],60.74
same,"Cp (crossing point, measure for the amplification efficiency)",factor V DNA,21.91
same,Tm mt,factor V mutant sequence,52.14
"5′ AATACCTGp1TATTCCTCp1GCCTGTC-fluorescein-3′: Example 4 fluorescein probe SEQ ID NO: 4, two-fold modified; p1 is a P = N-pPh-NAc mimetic (DNA dAdAdTdAdCdCdTdG[PNAc]dTdAdTdTdCdCdTdC[PNAc]dGdCdCdTdGdTdC-{Fluorescein})",Tm wt,[1],64.28
same,"Cp (crossing point, measure for the amplification efficiency)",factor V DNA,22.26
same,Tm mt,factor V mutant sequence,55.89
5′ Ap1ATACCTGTATTCCTCGCCTGTC fluorescein-3′: Example 4 fluorescein probe SEQ ID NO: 4; p1 is a P = N-pPh-NAc mimetic (DNA dA[PNAc]dAdTdAdCdCdTdGdTdAdTdTdCdCdTdCdGdCdCdTdGdTdC-{Fluorescein}),Tm wt,[1],64.80
same,"Cp (crossing point, measure for the amplification efficiency)",factor V DNA,22.51
same,Tm mt,factor V mutant sequence,56.80
"5′ Ap1Ap1Tp1ACCTGTATp1Tp1Cp1CTCGCCTp1Gp1Tp1C-fluorescein-3′: Example 4 fluorescein probe SEQ ID NO: 4, multiply modified; p1 is a P = N-pPh-NAc mimetic (DNA dA[PNAc]dA[PNAc]dT[PNAc]dAdCdCdTdGdTdAdT[PNAc]dT[PNAc]dC[PNAc]dCdTdCdGdCdCdT[PNAc]dG[PNAc]dT[PNAc]dC-{Fluorescein})",Tm wt,[1],61.40
same,"Cp (crossing point, measure for the amplification efficiency)",factor V DNA,22.00
same,Tm mt,factor V mutant sequence,52.83
"5′ Ap1Ap1Tp1Ap1Cp1Cp1Tp1Gp1Tp1Ap1Tp1TCCTCGCCTGTC-fluorescein-3′: Example 4 fluorescein probe SEQ ID NO: 4, multiply modified; p1 is a P = N-pPh-NAc mimetic (DNA dA[PNAc]dA[PNAc]dT[PNAc]dA[PNAc]dC[PNAc]dC[PNAc]dT[PNAc]dG[PNAc]dT[PNAc]dA[PNAc]dT[PNAc]dTdCdCdTdCdGdCdCdTdGdTdC-{Fluorescein})",Tm wt,[1],60.69
same,"Cp (crossing point, measure for the amplification efficiency)",factor V DNA,21.40
same,Tm mt,factor V mutant sequence,52.19
"5′ GAGAGACATCGCCTCTGGGCTA / 5′ TGTTATCACACTGGTGCTAA: unmodified primer pair SEQ ID NO: 1 and 2, used as reference (DNA 1 GAGAGACATCGCCTCTGGGCTA; DNA 2 TGTTATCACACTGGTGCTAA; unmodified DNA) [reference compound]","Cp (crossing point, measure for the amplification efficiency)",human Factor V DNA,20.36
5′ GAGAGACATCGCCTCTGGGCTA / 5′ TGT TAT CAC ACT p1GGT GCT AA: primer combination; p1 is a P = N-pPh-NAc mimetic,"Cp (crossing point, measure for the amplification efficiency)",human Factor V DNA,21.36
dA(P(═NSO2PhNHAc)dT [dA(P(=NSO2PhNHAc)dT],decomposition,[2]; after 16 h at 95° C. at pH 7.0,started decomposing
same,rtHPLC (retention time of the dimer signal),[2]; [3],rtHPLC = 2.99
same,additional peaks (decomposition),[2]; [4],"2 new peaks t = 1.2, 2.0."
same,rtHPLC (retention time of the dimer signal),[2]; [4],rtHPLC = 2.99
same,rtHPLC (retention time of the dimer signal),[2]; [5],rtHPLC = 2.93
same,rtHPLC (retention time of the dimer signal),[2]; [6],rtHPLC = 2.93
same,stability,[2],stable
same,rtHPLC (retention time of the dimer signal),[2]; [7],rtHPLC = 2.92
same,rtHPLC (retention time of the dimer signal),[2]; [8],rtHPLC = 2.92
same,rtHPLC (retention time of the dimer signal),[2]; [9],rtHPLC = 2.96
same,rtHPLC (retention time of the dimer signal),[2]; [10],rtHPLC = 2.96
same,rtHPLC (retention time of the dimer signal),[2]; [11],rtHPLC = 2.95
same,rtHPLC (retention time of the dimer signal),[2]; [12],rtHPLC = 2.95
same,rtHPLC (retention time of the dimer signal),[2]; [13],rtHPLC = 2.92
same,rtHPLC (retention time of the dimer signal),[2]; [14],rtHPLC = 2.92
dAdT,decomposition,[2]; after 16 h at pH 7.0 and pH 8.0,started decomposing
same,rtHPLC (retention time of the dimer signal),[2]; [3],rtHPLC = 2.48
same,additional peaks (decomposition),[2]; [4],1 new peak t = 6.2
same,rtHPLC (retention time of the dimer signal),[2]; [4],rtHPLC = 2.42
same,rtHPLC (retention time of the dimer signal),[2]; [5],rtHPLC = 2.39
same,rtHPLC (retention time of the dimer signal),[2]; [6],rtHPLC = 2.39
same,stability,[2],stable
same,rtHPLC (retention time of the dimer signal),[2]; [7],rtHPLC = 2.42
same,additional peaks (decomposition),[2]; [8],1 new peak 6.2
same,rtHPLC (retention time of the dimer signal),[2]; [8],rtHPLC = 2.41
same,rtHPLC (retention time of the dimer signal),[2]; [9],rtHPLC = 2.38
same,rtHPLC (retention time of the dimer signal),[2]; [10],rtHPLC = 2.38
same,rtHPLC (retention time of the dimer signal),[2]; [11],rtHPLC = 2.42
same,rtHPLC (retention time of the dimer signal),[2]; [12],rtHPLC = 2.43
same,rtHPLC (retention time of the dimer signal),[2]; [13],rtHPLC = 2.41
same,rtHPLC (retention time of the dimer signal),[2]; [14],rtHPLC = 2.41
